# Data reported in US20220193085A1, “METHODS OF THROMBOPROPHYLAXIS” (JANSSEN PHARMACEUTICALS, INC., priority 2020, published 2022).
# “And” between values parts separate entries of the source, which are not always exact repeats. Equal values may be shown once. “Also recorded” adds a separate entry of the source.
# What was measured:
# [1] = Benefit-risk assessment: excess number of events per 1,000 subjects, Part B rivaroxaban vs aspirin
# Protocol: Benefit-risk balance was assessed using excess number of events defined as the absolute proportion difference between the Part B rivaroxaban and aspirin groups scaled to 1,000 subjects to reflect benefits and risks on a population level.
# [2] = tested on: prothrombin time (PT), activated partial thromboplastin time (aPTT); test: UNIVERSE PK/PD: PT and aPTT vs plasma rivaroxaban concentration; assay type: in vivo, pediatric patients; settings: UNIVERSE vs adult studies ODIXa-HIP2 and ODIXa-KNEE
# Protocol: PT and aPTT were determined using an electromagnetic mechanical clot detection method at ARUP laboratory (Salt Lake City, Utah, USA). The PT assay was performed according to the manufacturers' instructions on the STA Compact Hemostasis Workstation (STA Compact coagulation analyzer) using one PT reagent (STA-Neoplastine CI Plus, Diagnostica Stago, Inc), with an International Sensitivity Index (ISI) of around 1.3. The primary read-out for PT was in seconds, as the International Normalization Ratio (INR) which allows for comparison of PT values regardless of the reagents and instruments used for its determination, is only calibrated and validated for VKA and cannot be used for any other anticoagulant without validation. The PT reportable range is between 10 and 120 seconds. […] The read-out for aPTT is in seconds with a reportable range between 5 and 180 seconds. Anti-Factor Xa activity was determined at Eurofins Biomnis (France). Anti-Factor Xa activity was measured using a one-step reaction based on the inhibitory effect of rivaroxaban against factor Xa's activity of generating thrombin from prothrombin after adding rivaroxaban into the plasma-substrate mixture using the STA-COMPACT MAX2® system (Diagnostica Stago, Asnieres-sur-Seine, France). […] The calibration range of the assay is 35 to 500 ng/mL, and the lower limit of quantification (LLOQ) is 35 ng rivaroxaban/mL. […]
# [3] = UNIVERSE adverse events, serious adverse events and treatment discontinuation; assay type: in vivo, pediatric patients
# Text: Other safety outcomes: Any adverse events and serious adverse events (SAES).
# [4] = Part B rivaroxaban minus aspirin, up to end of treatment, full analysis set
# [5] = Part B rivaroxaban vs aspirin, negative values favor rivaroxaban
# [6] = Part B rivaroxaban vs aspirin, positive values favor aspirin
# [7] = for 1,000 subjects treated with rivaroxaban
# [8] = Part A N=12, treatment-emergent, safety set
# [9] = Part B rivaroxaban N=64, aspirin N=34, safety set
# [10] = Part B rivaroxaban N=64, aspirin N=34, treatment-emergent, safety set
# [11] = Part B rivaroxaban N=64, aspirin N=34, up to end of treatment, full analysis set
structure (smiles),measurement,setting,value
"O=C(NC[C@H]1CN(c2ccc(N3CCOCC3=O)cc2)C(=O)O1)c1ccc(Cl)s1 [Rivaroxaban, 5-chloro-N-({(5S)-2-oxo-3-[4-(3-oxo-4-morpholinyl)phenyl]-1,3,oxazolidin-5-yl}methyl)-2-thiophenecarboxamide]",Excess number of events: CRNM bleeding,[1]; [4],"−25.7 events per 1,000 subjects"
same,Excess number of events: SAEs,[1]; [4],"46.0 events per 1,000 subjects"
same,Excess number of events: all-cause mortality,[1]; [4],"0.0 events per 1,000 subjects"
same,Excess number of events: any thrombotic event (primary efficacy outcome),[1]; [4],"−72.6 events per 1,000 subjects"
same,Excess number of events: arterial/intracardiac thrombosis,[1]; [4],"0.0 events per 1,000 subjects"
same,Excess number of events: fall in hemoglobin ≥2 g/dL or transfusion of the equivalent ≥2 units,[1]; [4],"15.6 events per 1,000 subjects"
same,Excess number of events: fatal or critical site bleeding,[1]; [4],"0.0 events per 1,000 subjects"
same,Excess number of events: ischemic stroke,[1]; [4],"−29.4 events per 1,000 subjects"
same,Excess number of events: major and clinically relevant non-major bleeding,[1]; [4],"−10.1 events per 1,000 subjects"
same,Excess number of events: major bleeding (primary safety outcome),[1]; [4],"15.6 events per 1,000 subjects"
same,Excess number of events: pulmonary embolism,[1]; [4],"15.6 events per 1,000 subjects"
same,Excess number of events: trivial (minimal) bleeding,[1]; [4],"−24.8 events per 1,000 subjects"
same,Excess number of events: venous thromboembolism,[1]; [4],"−43.2 events per 1,000 subjects"
same,Excess number of events: venous thrombosis,[1]; [4],"−58.8 events per 1,000 subjects"
same,NNH: CRNM bleeding,[1]; [5],−39
same,NNH: major and clinically relevant non-major bleeding,[1]; [5],−99
same,NNH: trivial (minimal) bleeding,[1]; [5],−41
same,NNT: any thrombotic event (primary efficacy outcome),[1]; [5],−14
same,NNT: ischemic stroke,[1]; [5],−34
same,NNT: venous thromboembolism,[1]; [5],−24
same,NNT: venous thrombosis,[1]; [5],−17
same,NNH: SAEs,[1]; [6],21
same,NNH: fall in hemoglobin ≥2 g/dL or transfusion of the equivalent ≥2 units,[1]; [6],64
same,NNH: major bleeding (primary safety outcome),[1]; [6],64
same,NNT: pulmonary embolism,[1]; [6],64
same,Less events of clinically relevant non-major bleeding expected than with aspirin,[1]; [7],25 events
same,More events of ISTH major bleeding expected than with aspirin,[1]; [7],16 events
same,Thrombotic events (primary efficacy outcome) expected to be prevented compared with aspirin,[1]; [7],73 events
same,PT vs rivaroxaban concentration compared with adult reference,[2],within the 99% prediction range observed in the adult reference studies
same,aPTT vs rivaroxaban concentration compared with adult reference,[2],within the 99% prediction range observed in the adult reference studies; also recorded: less steep in comparison to adult reference
same,"AEs related to Study Agent, n (%)","[3]; Part A N=12, safety set",3 (25.0%)
same,"SAEs related to Study Agent, n (%)","[3]; Part A N=12, safety set",0
same,"TEAEs resulting in Permanent Discontinuation of Study Agent, n (%)","[3]; Part A N=12, safety set",0
same,"Adverse event: Pleural Effusion, % of participants",[3]; [8],(25%)
same,"Adverse event: Pleural Effusion, n (%)",[3]; [8],3
same,"All TESAEs (subjects with 1 or more serious adverse events), % of subjects",[3]; [8],(50%)
same,"Serious adverse event: Infections, % of participants",[3]; [8],(25%)
same,"Serious adverse event: Infections, n (%)",[3]; [8],3
same,"Serious adverse event: Pleural Effusion, % of participants",[3]; [8],(17%)
same,"Serious adverse event: Pleural Effusion, n (%)",[3]; [8],2
same,"Serious adverse event: Respiratory, Thoracic, and Mediastinal Disorders, % of participants",[3]; [8],(17%)
same,"Serious adverse event: Respiratory, Thoracic, and Mediastinal Disorders, n (%)",[3]; [8],2
same,"TEAE: Gastrointestinal Disorders, n (%)",[3]; [8],6
same,"TEAE: General Disorders and Administration Site Conditions, n (%)",[3]; [8],1
same,"TEAE: Injury, Poisoning, and Procedural Complications, n (%)",[3]; [8],4
same,"TEAE: Respiratory, Thoracic, and Mediastinal Disorders, n (%)",[3]; [8],5
same,"TEAE: Skin and Subcutaneous Tissue Disorders, n (%)",[3]; [8],3
same,"TEAE: Vascular Disorders, n (%)",[3]; [8],2
same,"Study treatment discontinued due to adverse event of mood disturbance, subjects n (%)",[3]; Part B rivaroxaban N=64,1 (1.6%)
same,"AEs related to Study Agent, n (%)",[3]; [9],20 (31.3%)
same,"SAEs related to Study Agent, n (%)",[3]; [9],1 (1.6%)
same,"TEAEs resulting in Permanent Discontinuation of Study Agent, n (%)",[3]; [9],2 (3.1%)
same,"All TEAEs (subjects with 1 or more), n (%)",[3]; [10],55 (85.9%) and 55 (86%)
same,"All TESAEs (subjects with 1 or more serious adverse events), n (%)",[3]; [10],18 (28.1%) and 18 (28%)
same,"Serious adverse event: Infections, n (%)",[3]; [10],5 (8%)
same,"Serious adverse event: Pleural Effusion, n (%)",[3]; [10],9 (14%)
same,"Serious adverse event: Respiratory, Thoracic, and Mediastinal Disorders, n (%)",[3]; [10],9 (14%)
same,"TEAE: Gastrointestinal Disorders, n (%)",[3]; [10],19 (29.7%) and 19 (30%)
same,"TEAE: General Disorders and Administration Site Conditions, n (%)",[3]; [10],17 (26.6%) and 17 (27%)
same,"TEAE: Injury, Poisoning, and Procedural Complications, n (%)",[3]; [10],18 (28.1%) and 18 (28%)
same,"TEAE: Respiratory, Thoracic, and Mediastinal Disorders, n (%)",[3]; [10],29 (45.3%) and 29 (45%)
same,"TEAE: Skin and Subcutaneous Tissue Disorders, n (%)",[3]; [10],19 (29.7%) and 19 (30%)
same,"TEAE: Vascular Disorders, n (%)",[3]; [10],3 (4.7%) and 3 (5%)
same,"SAEs, % of subjects",[3]; [11],(28.1%)
same,"SAEs, No. of subjects with event",[3]; [11],18/64
same,New safety signals,[3]; UNIVERSE study,no new safety signals
